Key:
[1] = Luciferase reporter gene assay for activity of purified mIFN-β protein; type: cell-based
Protocol: Specifically, the gene encoding mIFN-β was cloned into a pCEP4 expression vector (Invitrogen). The expression plasmid encoding mIFN-β was transiently transfected into 293E cells (Edge Biosystems) using X-tremeGene Ro-1539 Transfection Reagent (Roche). Murine IFN-β protein was purified from the medium by ion-exchange chromatography and by hydrophobic-interaction chromatography. The product was sialyzed and concentrated against dilution buffer (50 mM sodium acetate, pH 5.5, 150 mM sodium chloride, and 5% polypropylene glycol) and sterile filtered. Aliquots of the purified protein were stored at −80° C. The activity of the purified protein was assessed using a luciferase reporter gene assay (Hardy et al. (2001) Blood 97:473-482), using a commercial mIFN-β reference standard from Access Biomedical (San Diego, Calif.). The specific activity of the purified protein was 2×10^8 units/mg.
The positive control used for this study was Prednisolone, 2.5 mg/kg, (Sigma, St. Louis) administered by IP injection twice daily, beginning on day 1, until the end of the study. For mIFN-β protein delivery, the mice were given SC injections of purified recombinant mIFN-β protein every other day, starting on day 1 of the study (100,000 or 300,000 IU per animal per injection in 100 ul vehicle buffer). […]

IP-10 = IP-10 plasma level after bolus mIFN-β protein (ELISA); type: in vivo, C57BL/6 mice
Protocol: (§1) C57BL/6 mice were administered 15, 150, or 500 ng of purified recombinant mIFN-β protein (specific activity=2.0×10^8 units/mg) by either i.v. (via tail vein) or i.m. injection (n=3 mice per group). The mice were bled at 2, 4, 6, 12, 24, and 48 hours post-injection, and the plasma levels of IP-10 and JE were measured by ELISA (R&D Systems).

[2] = system: Mx1 RNA in murine L929 cells; assay: Mx1 RNA induction in vitro in L929 cells (TaqMan RT-PCR); type: cell-based
Protocol: FIG. 5 illustrates Mx1 RNA induction in vitro (in L929 cells) by mIFN-β. L929 cells were seeded at 5×10^5 cells in 6 well plates and stimulated with increasing amounts of purified recombinant mIFN-β protein. Four hours after treatment the cells were harvested, RNA isolated, and Mx1 RNA quantitated by TaqMan analysis. Mx1 RNA expression is plotted as the fold increase relative to GAPDH RNA.
A quantitative PCR/RT-PCR assay was developed to quantitate the levels of Mx1 mRNA in murine PBMC's. Specifically, peripheral blood mononuclear cells (PBMCs) were isolated from mice treated with either mIFN-β protein or following gene-based delivery of the mIFN-β gene. Blood samples obtained from treated mice were centrifuged on a ficoll cushion for 25 minutes at 2,000 rpm. Purified PBMCs were pelleted and RNA for the Mx1 assay was purified using the “RNAeasy” mini extraction kit from Qiagen. The RNA was stored in H2O at −80° C. Mx1 RT-PCR was performed using TaqMan® chemistry and analysis was done on the Applied Biosystems (ABI) PRISM® 7700 Sequence Detection instrument. For reverse transcription of the RNA and amplification of cDNA, the “One-step TaqMan® RNA” kit from ABI was used. […] The samples were analyzed with an Mx1-specific probe/primer combination. Mx1 expression was normalized to GAPDH expression measured in parallel using a standard assay from ABI. […]

JE = JE plasma level after bolus mIFN-β protein (ELISA); type: in vivo, C57BL/6 mice
Protocol: as §1

acute EAE in SJL mice = assay: Mouse acute EAE model, gene-based delivery of mIFN-β; type: in vivo; conditions: 100,000 Units s.c. every other day

mIFN-β: purified recombinant murine interferon-beta protein expressed in 293E cells
specific activity of the purified protein [1]: 2×10^8 units/mg
time by which plasma IP-10 dropped to background (IP-10; each of three doses): ≤ 24 h
increase of IP-10 levels (IP-10; high dose delivered i.v.): 3000 fold
time of strong induction of IP-10 after administration (IP-10; i.v. or i.m.): 2 h
increase in the level of Mx1 RNA [2]: 100 fold
EC50 of Mx1 RNA induction ([2]; 4 hours treatment): approximately 50 pg/ml
time by which plasma JE dropped to background (JE; each of three doses): ≤ 24 h
time of strong induction of JE after administration (JE; i.v. or i.m.): 2 h
clinical scores compared to vehicle control (acute EAE in SJL mice): significantly decreased clinical scores

Source: patent US20070179113A1, “GM-CSF gene therapy for Crohn's disease using an improved regulated expression system” (Schering Aktiengesellachaft, priority 2005, published 2007)
